This is an account of results in patent publication US9073856B2, “Phenyl methanesulfonamide derivatives useful as MGAT-2 inhibitors” (Eli Lilly and Company, priority 2012, dated 2015).

Broadly, the IC50 is the concentration that gives 50% inhibition.

Assay [1] deals with T1, human MGAT-2 (Homo sapiens, UniProt Q3SYC2). In words: MGAT-2 Cell Assay (Caco-2 cells stably transfected with human MGAT-2, HDG substrate, LC-MS). The format is cell-based. The conditions noted are these: HDG/DOPC. On the procedure:
The inhibitory activity of compounds against human MGAT-2 in a cell environment is evaluated in this assay. Caco-2 is a human colon carcinoma cell line and is often used as a model for intestinal epithelial cells. […] A MAG analogue, 2-O-Hexadecylglycerol (HDG), is utilized to detect cellular MGAT-2 activity, because HDG is not be hydrolyzed and the resulting product is readily monitored by mass spectrometry. The substrate is delivered to cells using phospholipid vesicles.
Seed the Caco2 cells onto 100 mm dishes to be 80% confluent after 24 hours in complete media (3/1 DMEM: F12+10% FBS+20 mM HEPES+gentamicin). Transfect the cells with hMGAT-2 plasmid (MGAT-2-pCDNA3.1-Hygro) using Lipofectamine 2000 (Invitrogen). After a 6 hour exposure to the transfection mixture, wash the cells 3× in PBS and then add media. Incubate the cells for an additional 18 hours incubation, trypsinize the cells and serially dilute them into 100 mm dishes. Added complete media+400 μg/ml hygromycin and incubate until clones appear. Isolate and transfer the clones into 24 well dishes and grow to confluency. Prepare the RNAs from these clones using a Qiagen RNAeasy kit. Perform Taqman analysis using an ABI inventoried assay (HS00228262) on a 7900 Sequence Detection System (ABI). Analyze the lysates from these clones western blot analysis using a goat polyclonal antibody (Santa Cruz, SC-32392 to confirm human MGAT-2 expression of a 38 Kdal protein corresponding to MGAT-2.
Mix 2-O-hexadecylglycerol (“HDG”, Biosynth Chemistry & Biology, # H-1806, 562.7 μl of 20 mg/ml) and DOPC (14.3 ml of 20 mg/ml) in a glass tube; dry first under N2 gas; and then under vacuum for additional 30 minutes. Add 20 ml of buffer (150 mM Tris-Cl pH 7.4, 250 mM Sucrose, 1 mM EDTA) to the dried HDG/DOPC mixture while sonicating until the solution becomes clear. Plate the Caco2 cells into a poly-D-lysine coated 96-well plate (the “Cell Plate”) at 37° C., 5% CO2 overnight. Remove the growth media and pretreat the cells with the test compound in DMEMF12 (3:1) media (GIBCO 93-0152DK) containing 2% BSA (Sigma) for 30 minutes. Treat the cells with one test compound in 2% BSA DMEMF12 (3:1) media containing 40 μM of oleic acid and 800 μM of 8.9% HDG/DOPC for 4 hours. Trypsinize the cells with 50 μl of trypsin and add 50 μl of PBS. Immediately freeze the cells on dry ice and store at −20° C. for LC-MS analysis. Extract the cells with chloroform/methanol as follows transfer the cells to a 2 ml Plate; wash the Cell Plate with 200 μL methanol and then transfer the methanol wash to the 2 ml Plate; wash the Cell Plate again with 200 μL PBS and transfer the PBS wash to the 2 ml Plate. Add chloroform (400 μL) with internal standard (19.52 ng/mL) DAG (15:0,15:0 (Sigma)), D5-TAG (39.03 ng/mL) CDN (16,16,16) to the 2 mL Plate. […]

For another assay, the system named is TAG absorption. Briefly: Dog Oil Bolus Model (plasma TAG after olive oil bolus). As to conditions: male beagles, olive oil 5 ml/kg. The format is in vivo. On the procedure:
Inhibiting MGAT-2 found in the small intestine may be useful for treating hypertriglyceridemia caused by excessive fat intake. To assess the ability of the exemplified compounds to inhibit TAG absorption, twenty one male beagles (n=7 per treatment group) are enrolled for each study each dog selected to have a body weight between 9-13 kg. House the dogs in cages with a standard light cycle (12 hours light and 12 hours dark); at room temperature: 72±8° F.; and at 30%-70% relative humidity. Fast the dogs for 16 hours prior to the start of the study, then dose the fasted dogs with vehicle (1% HEC, 0.25%, Tween 80, Antifoam) or one of the test compounds. Bleed the dogs one hour after dosing, (0.5 ml from the jugular vein) for a time 0 sample. Dose the dogs with olive oil (Sigma Catalog#: O-1514, 5 ml/kg) immediately after collection of the time 0 sample. Collect samples into an EDTA tube on ice at 1.5, 2, 3, 5, 7, and 9 hrs post compound/vehicle dosing. […]
The analyte is the [M+NH4]+ ion of TAG 18:1 18:1 18:1, which has a mass of 902.8 m/z; the internal standard is D5 TAG 16:0 16:0 16:0, which has a mass of 829.8 m/z. […] The percent inhibition of plasma triglyceride is calculated as follows: the (oil bolus group mean of net TAG AUC−oil bolus group mean of net TAG AUC with compound treatment/oil bolus group mean of net TAG AUC)*100. […]

In assay [2] the target is T1, human MGAT-2. Briefly: MGAT-2 Inhibitory Assay (14C-oleoyl-CoA, Microscint E extraction, SF9 cell lysate). The conditions noted are these: human MGAT-2 expressed in SF9 cells, 90 minutes, room temperature; read-out: IC50 in MGAT-2 in vitro assay. Type of assay: biochemical. Also on record: made in house; host or cells: Insect SF9 cells (supernatant of homogenate, unpurified). On the procedure: The in vitro inhibitory activity of compounds against human MGAT-2 is evaluated in this assay. MGAT-2 transfers an oleoyl group to monooleoyl-glycerol (“MAG”) from oleoyl-CoA to form dioleoyl-glycerol (“DAG”) in the intestinal triglyceride resynthesis pathway. The assay takes advantage of Microscint E extraction, which extracts hydrophobic molecules selectively over hydrophilic ones to separate the ^14C-oleoyl-CoA from ^14C-DAG.
Insect SF9 cells express human MGAT-2. Prepare the cell lysate in 20 mM of NaCl with protease inhibitor (Roche Cat#11873580001). Homogenize the SF9 cells expressing human MGAT-2 at 15,000 rpm for 20×2 seconds (PT-3100 Polytrone). Centrifuge the homogenate at 1000 g for 10 minutes at 4° C. Collect the supernatant into a separate tube for protein quantification and activity testing. Purify the glycerol monooleate substrate (Spectrum Chemical, CAS#25496-72-4) chromatographically. Prepare the monoacylglyerol (MAG) substrate in phospholipid vescicles (dioleoyl phosphatidylcholine “DOPC”). Prepare the MAG/DOPC vesicles at 20 mM concentration of total lipids (MAG and DOPC). Prepare different molar ratios of MAG to total lipids for either compound screening (8.9%) or compound kinetic studies (2.6-40%). Mix the appropriate amount of purified MAG and DOPC (Avanti Polar Lipids #850375C) in a glass tube under N2 gas and then dry under vacuum for 30 minutes. […]

The mark [3] stands for this setting: Caco-2 cells expressing human MGAT-2, 4 hours, read-out: Basal Triglyceride Caco 2 Relative IC50.

Counter-ions that a name gives are not always drawn.

T1 sequence (Q3SYC2 whole entry): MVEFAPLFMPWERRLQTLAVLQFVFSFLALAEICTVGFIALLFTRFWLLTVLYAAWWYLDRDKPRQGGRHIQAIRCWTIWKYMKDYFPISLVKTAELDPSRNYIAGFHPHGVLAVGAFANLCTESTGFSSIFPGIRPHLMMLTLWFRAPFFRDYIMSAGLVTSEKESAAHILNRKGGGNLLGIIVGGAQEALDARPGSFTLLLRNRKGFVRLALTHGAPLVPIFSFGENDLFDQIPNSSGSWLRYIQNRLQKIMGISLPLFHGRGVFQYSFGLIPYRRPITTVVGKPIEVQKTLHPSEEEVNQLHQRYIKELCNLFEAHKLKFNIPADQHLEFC

On to `CC(C)(C)C1CCN(Cc2ccc([C@H](NS(C)(=O)=O)C(F)(F)F)cc2)CC1.Cl` [Example 1, N-[(1S)-1-[4-[(4-tert-Butylpiperidin-1-yl)methyl]phenyl]-2,2,2-trifluoro-ethyl]methanesulfonamide hydrochloride], for which the IC50 is 58.2 nM against human MGAT-2 [1] (Basal Triglyceride Caco 2 Relative IC50, Caco-2 cells expressing human MGAT-2, 4 hours) and less than 12 nM at human MGAT-2 [2]. The “inhibition of TAG absorption (percent inhibition of net plasma TAG AUC)” value in the assay with TAG absorption (dosed at 10 mg/kg) stood at 69%. In addition, the “inhibition of TAG absorption” value with TAG absorption (dosed at 30 mg/kg) is “completely inhibited”.
As for `CC(C)(C)C1CCN(Cc2ccc([C@H](NS(C)(=O)=O)C(F)(F)F)cc2)CC1` [Example 2, N-[(1S)-1-{4-[(4-tert-butylpiperidin-1-yl)methyl]phenyl}-2,2,2-trifluoroethyl]methanesulfonamide phosphoric acid], at human MGAT-2 [1] (setting [3]), the IC50 was found to be 102 nM.
With `CS(=O)(=O)N[C@@H](c1ccc(CN2CCC(c3ccc(F)cc3)CC2)cc1)C(F)(F)F` [Example 4, N-[(1S)-2,2,2-trifluoro-1-(4-{[4-(4-fluorophenyl)piperidin-1-yl]methyl}phenyl)ethyl]methanesulfonamide hydrochloride], on human MGAT-2 [1] (setting [3]), the half-maximal inhibitory concentration (IC50) turned out to be 17.7 nM.
With `C[C@@H](NS(C)(=O)=O)c1ccc(CN2CCC(c3ccc(F)cc3)CC2)cc1` [Example 5, N-[(1R)-1-(4-{[4-(4-fluorophenyl)piperidin-1-yl]methyl}phenyl)ethyl]methanesulfonamide hydrochloride], the IC50 on human MGAT-2 [1] (setting [3]) stood at 64.2 nM.
